Entries after “also recorded” stand apart in the source; their conditions may differ.
Assays:
[1] = test system: β-galactosidase from jack beans; test: Inhibition of β-galactosidase cleavage of Galβ4GlcNAcβ3Galβ4Glc; format: biochemical; conditions: 55 mM inhibitor, 100 mU enzyme, 50 mM sodium citrate pH 4.0, 37° C., 8 h; no unreacted substrate without inhibitor
Text: Inhibition of β-galactosidase enzyme by D-galactono-1,4-lactone (Sigma, St Louis, USA). β-galactosidase from jack beans (EC 3.2.1.23, Sigma, St Louis, USA) is used to cleave terminal galactose from model oligosaccharide Galβ4GlcNAcβ3Galβ4Glc (Sigma, St Louis, USA). It is noted that the transition state analog galactosidase inhibitor is active against many galactosidases (Huber and Brockbank, 1987, actual active form is probably D-galactono-1,5-lactone) and that the jack bean β-galactosidase cleaves similarily other type 2 lactosamines such as e.g. Galβ4GlcNAcβ3Galβ4GlcNAcβ3Galβ4Glc, specific conditions are needed to cleave Galβ3GlcNAc-sequences or glycospingolipids. In Reaction 1, 25 nmol of Galβ4GlcNAcβ3Galβ4Glc is incubated with 100 mU of β-galactosidase from jack beans in-45 μl of 50 mM sodium citrate pH 4.0, at 37° C., for 8 h. Reaction 2 has the same composition, but contains additionally 55 mM D-galactono-1,4-lactone and it is incubated under the same condition for 8 h. The major products from Reaction 1 are Gal and GlcNAcβ3Galβ4Glc, while unreacted substrate is generally not observable by HPLC and mass spectrometric analysis, while Reaction 2 contains besides these typically more than 50% of uncleaved Galβ4GlcNAcβ3Galβ4Glc.

Helicobacter pylori [2] = test: TLC bacterial overlay assay: binding of 35S-labeled Helicobacter pylori to glycosphingolipids; conditions: for Helicobacter pylori binding activity (in words): TLC overlay; for binding frequency for Helicobacter pylori: strain 032, total number of plates about 100; for binding compared between Helicobacter pylori strains: strains 17875, 002 and 032
[3] = molecular target: T1, sialidase from Vibrio cholerae (Vibrio cholerae serotype O1, UniProt P0C6E9); test: Inhibition of sialidase cleavage of Neu5Acα3Galβ4Glc; format: biochemical; conditions: saturating concentrations
T1 construct: purchased Behringwerke, Marburg, Germany
T1 sequence (P0C6E9 25-781): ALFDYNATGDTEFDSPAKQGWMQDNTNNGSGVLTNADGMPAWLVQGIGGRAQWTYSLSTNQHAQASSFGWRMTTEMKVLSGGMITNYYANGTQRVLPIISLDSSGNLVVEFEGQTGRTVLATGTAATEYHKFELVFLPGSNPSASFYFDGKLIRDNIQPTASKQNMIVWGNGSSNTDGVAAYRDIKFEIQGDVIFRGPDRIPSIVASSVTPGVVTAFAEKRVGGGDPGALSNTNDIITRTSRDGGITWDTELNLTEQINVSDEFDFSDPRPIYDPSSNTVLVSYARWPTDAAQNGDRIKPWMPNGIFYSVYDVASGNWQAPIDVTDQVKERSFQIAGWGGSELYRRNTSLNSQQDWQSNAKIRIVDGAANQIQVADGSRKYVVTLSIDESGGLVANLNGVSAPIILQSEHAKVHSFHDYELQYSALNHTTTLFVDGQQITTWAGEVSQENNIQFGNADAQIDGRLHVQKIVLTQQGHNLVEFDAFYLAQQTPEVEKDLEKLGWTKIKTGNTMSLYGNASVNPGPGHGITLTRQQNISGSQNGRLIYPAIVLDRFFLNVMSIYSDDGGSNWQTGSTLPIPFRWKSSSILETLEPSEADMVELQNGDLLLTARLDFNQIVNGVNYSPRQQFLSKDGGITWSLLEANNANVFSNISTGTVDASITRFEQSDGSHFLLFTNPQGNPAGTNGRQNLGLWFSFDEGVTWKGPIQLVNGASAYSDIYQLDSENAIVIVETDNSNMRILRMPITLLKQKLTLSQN

Helicobacter pylori [4] = conditions: human gastrointestinal cell lines (Simon et al., 1999); cited from earlier work
Helicobacter pylori [5] = conditions: rhesus monkey (Mysore et al., 2000); cited from earlier work
[6] = dilution series, semi-quantitative TLC overlay

| Compound | Helicobacter pylori binding activity (in words) (Helicobacter pylori [2]) | other results |
| --- | --- | --- |
| O=C1O[C@@H]([C@H](O)CO)[C@H](O)[C@H]1O [D-galactono-1,4-lactone] |  | uncleaved Galβ4GlcNAcβ3Galβ4Glc [1]: more than 50% |
| CCCCCCCCCCCCCCCCc1ccc(NC[C@H](O)[C@@H](O)[C@H](O[C@@H]2O[C@H](CO)[C@H](O)[C@H](O[C@@H]3O[C@H](CO)[C@@H](O[C@@H]4O[C@H](CO)[C@H](O)[C@H](O[C@@H]5O[C@H](CO)[C@@H](O)[C@H](O)[C@H]5NC(C)=O)[C@H]4O)[C@H](O)[C@H]3NC(C)=O)[C@H]2O)[C@H](O)CO)cc1 [GlcNAcβ3Galβ4GlcNAcβ3Galβ4Glc(red)-HDA] | observable binding activity |  |
| CC(=O)N[C@H]1[C@H]([C@H](O)[C@H](O)CO)OC(C(=O)O)=C[C@@H]1O [Neu5Ac2en, 2,3-anhydro-2-deoxy-N-acetylneuraminic acid] |  | inhibition of the enzyme (in words) [3]: very effectively inhibited |
| CC(=O)N[C@H]1[C@H]([C@H](O)[C@H](O)CO)O[C@@](O[C@H]2[C@@H](O)[C@@H](CO)O[C@@H](O[C@H]3[C@H](O)[C@@H](O)C(O)O[C@@H]3CO)[C@@H]2O)(C(=O)O)C[C@@H]1O (stereo partly shown) [Sialyl-lactose] |  | inhibition of Helicobacter pylori binding to cell lines (Helicobacter pylori [4]): inhibits Helicobacter pylori binding; efficacy in animal model of the infection (Helicobacter pylori [5]): effective |
| Fucα2Galβ4GlcNAcβ3Galβ4Glcβ1Cer [No. 18] | absence of binding |  |
| GalNAcα3(Fucα2)Galβ4GlcNAcβ3Galβ4Glcβ1Cer [No. 22] | non-binding |  |
| GalNAcβ3Galα3Galβ4GlcNAcβ3Galβ4Glcβ1Cer [No. 25] | non-binding |  |
| GalNAcβ3Galβ4GlcNAcβ3Galβ4Glcβ1Cer [No. 11] | binding was also found |  |
| Galα3(Fucα2)Galβ4GlcNAcβ3Galβ4Glcβ1Cer [No. 23] | non-binding |  |
| Galα3Galβ4GlcNAcβ3Galβ4Glcβ1Cer [No. 13] | binding-active |  |
| Galα4Galβ4GlcNAcβ3Galβ4Glcβ1Cer [No. 15] | absence of binding |  |
| Galβ4GlcNAcβ3Galβ4GlcNAcβ3Galβ4Glcβ1Cer [No. 21] | displayed binding activity | amount in which glycolipid bound Helicobacter pylori (Helicobacter pylori [2]; [6]): ~0.2 nmoles of glycolipid/spot; binding frequency for Helicobacter pylori (Helicobacter pylori [2]): ~90%; binding compared between Helicobacter pylori strains (Helicobacter pylori [2]): similar |
| Galβ4GlcNAcβ3Galβ4Glcβ1Cer [No. 5] | displayed binding activity | amount in which glycolipid bound Helicobacter pylori (Helicobacter pylori [2]; [6]): ~0.3 nmoles of glycolipid/spot; binding compared between Helicobacter pylori strains (Helicobacter pylori [2]): similar |
| Galβ4GlcβCer [diglycosylceramide] | displayed binding activity |  |
| GlcNAcβ3Galβ4GlcNAcβ3Galβ4Glcβ1Cer [No. 10] |  | Helicobacter pylori binding activity (in words) (Helicobacter pylori [2]; listed as pentaglycosylceramide): strong activity; also recorded: displayed binding activity; also recorded: highly active; amount giving a positive response on TLC plates (Helicobacter pylori [2]; dilution series, semi-quantitative TLC overlay, mean value from 7 experiments): 0.039 nmol/spot; binding frequency for Helicobacter pylori (Helicobacter pylori [2]): ~90%; binding compared between Helicobacter pylori strains (Helicobacter pylori [2]): similar |
| GlcNAcβ3Galβ4Glcβ1Cer [No. 1] | inactive |  |
| NeuAcα3GalNAcβ3Galβ4GlcNAcβ3Galβ4Glcβ1Cer [No. 24] | non-binding |  |
| NeuGcα3Galβ4GlcNAcβ3Galβ4GlcNAcβ3Galβ4Glcβ1Cer [No. 27] |  | binding by Helicobacter pylori isolates (Helicobacter pylori [2]; about 60 isolates tested): bound by most Helicobacter pylori isolates |
| maltoheptaose(red)-HDA [maltoheptaose/red)-HDA, reference compound] | totally inactive |  |
